Source: patent publication EP4813403A1, “USE OF GLP-1R/GIPR DOUBLE-TARGET AGONIST IN PREPARING ANIMAL DRUG” (Hangzhou Zhongmeihuadong Pharmaceutical Co., Ltd., priority 2023, dated 2025)

Tests used:
mouse GIPR = biological target: T1, mouse GIPR (Mus musculus, UniProt Q0P543); assay: Agonistic activity on GIPR of different species (LANCE Ultra cAMP assay): mouse; assay type: cell-based; conditions: ratio of EC50 value of other species to human EC50 value
T1 construct: expressed in transfected cells; host or cells: CHO-K1 (transient)
T1 sequence (Q0P543 19-460): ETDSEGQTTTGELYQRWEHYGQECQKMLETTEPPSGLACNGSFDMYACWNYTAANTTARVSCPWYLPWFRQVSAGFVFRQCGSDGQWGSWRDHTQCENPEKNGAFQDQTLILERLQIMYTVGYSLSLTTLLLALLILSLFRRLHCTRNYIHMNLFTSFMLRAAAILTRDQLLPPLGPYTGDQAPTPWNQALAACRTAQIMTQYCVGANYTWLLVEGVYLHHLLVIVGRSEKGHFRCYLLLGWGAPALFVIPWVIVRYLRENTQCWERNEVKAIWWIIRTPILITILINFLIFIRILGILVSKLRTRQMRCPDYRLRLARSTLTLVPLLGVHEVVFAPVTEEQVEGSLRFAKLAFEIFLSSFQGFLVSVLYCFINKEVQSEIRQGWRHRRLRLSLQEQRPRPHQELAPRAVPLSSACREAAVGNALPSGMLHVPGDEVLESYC

rat GIPR = biological target: T2, rat GIPR (Rattus norvegicus, UniProt P43219); assay: Agonistic activity on GIPR of different species (LANCE Ultra cAMP assay): rat; assay type: cell-based; conditions: ratio of EC50 value of other species to human EC50 value
T2 construct: expressed in transfected cells; host or cells: CHO-K1 (transient)
T2 sequence (P43219 19-455): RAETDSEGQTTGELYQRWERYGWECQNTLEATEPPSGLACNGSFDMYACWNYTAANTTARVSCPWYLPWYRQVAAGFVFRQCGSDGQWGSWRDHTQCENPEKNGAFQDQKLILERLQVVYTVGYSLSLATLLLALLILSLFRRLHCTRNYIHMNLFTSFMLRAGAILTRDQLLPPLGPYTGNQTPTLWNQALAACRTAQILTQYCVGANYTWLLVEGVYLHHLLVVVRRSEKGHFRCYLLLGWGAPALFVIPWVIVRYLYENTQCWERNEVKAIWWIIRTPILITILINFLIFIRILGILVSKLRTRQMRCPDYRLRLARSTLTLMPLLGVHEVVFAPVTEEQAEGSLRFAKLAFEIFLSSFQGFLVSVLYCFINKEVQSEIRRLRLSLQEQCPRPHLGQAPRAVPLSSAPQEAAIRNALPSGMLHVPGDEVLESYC

[1] = Pharmacokinetics in beagle dogs; assay type: in vivo; conditions: for MRT: beagle
Description: After subcutaneous administration to beagle dogs, plasma was collected and the drug concentration in plasma was determined to illustrate the in vivo pharmacokinetic properties of the compound according to the present invention. The compound of the present invention was administered to a beagle dog (7-9 kg) at a dose of 0.05mg/kg subcutaneously (s.c.). About 500 µL of whole blood was collected from the saphenous vein into an EDTA-K2 anticoagulant tube at predose, 0.5 hours, 1 hour, 2 hours, 6 hours, 10 hours, 24 hours, 48 hours, 72 hours and 96 hours, respectively. The blood samples were centrifuged at 3000 g and at 2°C to 8°C for 10 minutes to obtain plasma, which was stored at -90°C to -60°C for further analysis and assay.
20.0 µL of thawed plasma sample was taken. […] Then 120 µL of 0.1% formic acid in methanol was added to precipitate the protein. The mixture was vortexed for 5 minutes, and centrifuged at 4815g for 10 minutes. 100.0 µL of the supernatant was taken, into which 100 µL of 0.5% aqueous formic acid solution was added. The mixture was vortexed for 5 minutes. 10 µL of the mixture solution was sampled and injected into the LC-MS/MS to determine the drug concentration in plasma.
Based on the drug concentration in plasma of the compound in the beagle dogs, the pharmacokinetic parameters were calculated by applying the software Winnolin 8.3 in a non-compartmental model. Table 11 Average pharmacokinetic parameters after single subcutaneous administration in beagle dogs

in vivo = assay: in vivo; parameters: species or system cats; conditions: sc, 0.025 mg/kg
Description: After subcutaneous administration to cats, plasma was collected and the drug concentration in plasma was determined to illustrate the in vivo pharmacokinetic properties of the compound according to the present invention. […] The blood samples were stored on wet ice and centrifuged (1500-1600 g, 2-8°C, for 10 minutes) within 0.5 hours to obtain plasma, with at least 100 µL of plasma required for each sample. The plasma was then frozen and stored at -90°C to -60°C for subsequent analysis and detection. 30.0 µL of thawed plasma sample were taken, and 300 µL of acetonitrile solution containing an internal standard was added to precipitate the proteins. The mixture was vortexed for 1 minute and then centrifuged at 13,000 rpm for 5 minutes. 165 µL of the supernatant were transferred to a 96-well plate for LC-MS/MS analysis to determine the drug concentration in the plasma. Based on the drug concentration in plasma of the compound in the cats, the pharmacokinetic parameters were calculated by applying the software Winnolin 8.3 in a non-compartmental model. Table 12 Average pharmacokinetic parameters after single subcutaneous administration in cats

obese cats = assay: Weight loss efficacy in obese cats; assay type: in vivo; conditions: s.c. QW escalating doses
Description: This study evaluated the weight loss efficacy of the compound of this invention through multiple subcutaneous administrations to obese cats, with changes in cat body weights being monitored. The study involved cats aged 8 months or older with a body condition score (BCS) of ≥6. […] G11 (control group), G12, G13, and […]. . Group G11 served as the vehicle control group. […] The animals' body weights were measured at a fixed time every 7 days after administration, and food intake was measured once per day. Blood tests for routine and biochemical parameters were conducted before grouping and on […]. Body condition score (BCS), feline body mass index (FBMI), and abdominal circumference (AC) were measured once a week. The data were statistically analyzed using ANOVA. If ANOVA yielded statistical significance (p < 0.05) and the variances were homogeneous, Tukey's test was used for intergroup comparisons. If the variances were heterogeneous, Dunnett's T3 test was used. Results are presented as means and standard errors of the mean (Mean ± SEM). The significance level was set at 0.05, and both statistical and biological significance were considered in the analysis.

[2] = beagle dogs, single subcutaneous administration, 0.05mg/kg
[3] = dog, in vivo, sc, beagle dogs, single subcutaneous administration, 0.05mg/kg

Structure (SMILES): CC[C@H](C)[C@H](NC(=O)C(C)(C)NC(=O)[C@H](Cc1ccc(O)cc1)NC(=O)[C@H](CC(=O)O)NC(=O)[C@H](CO)NC(=O)[C@@H](NC(=O)C(C)(Cc1ccccc1)NC(=O)[C@@H](NC(=O)CNC(=O)[C@H](CCC(=O)O)NC(=O)C(C)(C)NC(=O)[C@@H](N)Cc1ccc(O)cc1)[C@@H](C)O)[C@@H](C)O)C(=O)NC(C)(C)C(=O)N[C@@H](CC(C)C)C(=O)N[C@@H](CC(=O)O)C(=O)N[C@@H](CCCCN)C(=O)N[C@@H](CCC(N)=O)C(=O)N[C@@H](C)C(=O)N[C@@H](CCC(N)=O)C(=O)N[C@@H](C)C(=O)N[C@@H](CCC(=O)O)C(=O)N[C@@H](Cc1ccccc1)C(=O)N[C@H](C(=O)N[C@@H](CCCCNC(=O)COCCOCCNC(=O)COCCOCCNC(=O)COCCOCCNC(=O)CC[C@H](NC(=O)CCCCCCCCCCCCCCCCCCCCC(=O)O)C(=O)O)C(=O)N[C@@H](Cc1c[nH]c2ccccc12)C(=O)N[C@@H](CC(C)C)C(=O)N[C@@H](CC(C)C)C(=O)N[C@@H](CCCCN)C(=O)NCC(=O)NCC(=O)N1CCC[C@H]1C(=O)N[C@@H](CO)C(=O)N[C@@H](CO)C(=O)NCC(=O)N[C@@H](C)C(=O)N1CCC[C@H]1C(=O)N1CCC[C@H]1C(=O)N1CCC[C@H]1C(=O)N[C@@H](CO)C(=O)N[C@@H](CCCCN)C(N)=O)C(C)C (stereo partly shown) [Compound P016]
- GIPR EC50 ratio (mouse GIPR): 12.49
- GIPR EC50 ratio (rat GIPR): 2.22
- AUC(0-t) [1, 2]: 29925 ng·h/mL
- Cmax [1, 2]: 407.33 ng/mL
- Tmax [1, 2]: 19.33 h
- MRT ([1]; dog, in vivo, sc, 0.05 mg/kg, MRT0-inf): 108 ± 23.2 h
- MRT ([1]; dog, in vivo, sc, 0.05 mg/kg, MRT0-t): 44.8 ± 4.17 h
- T1/2 ([1]; dog, in vivo, sc, 0.05 mg/kg): 69.32 h
- AUC(0-inf) [1, 3]: 52100 ± 14700 ng·h/mL
- half-life [1, 3]: 69.3 ± 14 h
- AUC(0-t) ([1]; dog, in vivo, sc, beagle dogs, single subcutaneous administration, 0.05mg/kg, read-out: AUC0-t): 29900 ± 5660 ng·h/mL
- Cmax ([1]; dog, in vivo, sc, beagle dogs, single subcutaneous administration, 0.05mg/kg, read-out: Cmax): 407 ± 45.8 ng/mL
- Tmax ([1]; dog, in vivo, sc, beagle dogs, single subcutaneous administration, 0.05mg/kg, read-out: Tmax): 19.3 ± 8.08 h
- AUC(0-inf) (in vivo; both sexes, cat): 11200 ng·h/mL
- AUC(0-t) (in vivo; both sexes, cat): 9260 ng·h/mL
- Cmax (in vivo; both sexes, cat): 123 ng/mL
- Tmax (in vivo; both sexes, cat): 24 h
- half-life (in vivo; both sexes, cat): 37.4 h
- MRT (in vivo; both sexes, cat, MRT0-t): 54.4 h
- MRT (in vivo; both sexes, cat, MRT0-∞): 61.6 h
- AUC(0-t) (in vivo): 9260 ng·h/mL
- T1/2 (in vivo): 37.4 h
- effective dose for weight loss (obese cats): 96 nmol/kg
- effective dose for weight loss (obese cats; equivalent of the nmol/kg dose): 0.5 mg/kg
- maximum weight loss (obese cats; five administrations): 19.45%
